Measurements taken from article PMC4076210, “Discovery of Novel AKT Inhibitors with Enhanced Anti-Tumor Effects in Combination with the MEK Inhibitor” (PLoS ONE, 2014).
Like-named read-outs stand apart in the source and are kept apart here.

How the values were obtained:
Test in all cases: Kinase panel
BRK(h) = biological target: T1, BRK(h) (Homo sapiens, UniProt Q13882); type: biochemical
T1 construct: purchased Millipore KinaseProfiler

CK1(y) = type: biochemical, yeast
cKit(D816H)(h) = biological target: T2, cKit(D816H)(h) (Homo sapiens, UniProt P10721, D816H); type: biochemical
T2 construct: purchased Millipore KinaseProfiler

Flt3(h) = biological target: T3, Flt3(h) (Homo sapiens, UniProt P36888); type: biochemical
T3 construct: purchased Millipore KinaseProfiler
T3 sequence (P36888 27-993): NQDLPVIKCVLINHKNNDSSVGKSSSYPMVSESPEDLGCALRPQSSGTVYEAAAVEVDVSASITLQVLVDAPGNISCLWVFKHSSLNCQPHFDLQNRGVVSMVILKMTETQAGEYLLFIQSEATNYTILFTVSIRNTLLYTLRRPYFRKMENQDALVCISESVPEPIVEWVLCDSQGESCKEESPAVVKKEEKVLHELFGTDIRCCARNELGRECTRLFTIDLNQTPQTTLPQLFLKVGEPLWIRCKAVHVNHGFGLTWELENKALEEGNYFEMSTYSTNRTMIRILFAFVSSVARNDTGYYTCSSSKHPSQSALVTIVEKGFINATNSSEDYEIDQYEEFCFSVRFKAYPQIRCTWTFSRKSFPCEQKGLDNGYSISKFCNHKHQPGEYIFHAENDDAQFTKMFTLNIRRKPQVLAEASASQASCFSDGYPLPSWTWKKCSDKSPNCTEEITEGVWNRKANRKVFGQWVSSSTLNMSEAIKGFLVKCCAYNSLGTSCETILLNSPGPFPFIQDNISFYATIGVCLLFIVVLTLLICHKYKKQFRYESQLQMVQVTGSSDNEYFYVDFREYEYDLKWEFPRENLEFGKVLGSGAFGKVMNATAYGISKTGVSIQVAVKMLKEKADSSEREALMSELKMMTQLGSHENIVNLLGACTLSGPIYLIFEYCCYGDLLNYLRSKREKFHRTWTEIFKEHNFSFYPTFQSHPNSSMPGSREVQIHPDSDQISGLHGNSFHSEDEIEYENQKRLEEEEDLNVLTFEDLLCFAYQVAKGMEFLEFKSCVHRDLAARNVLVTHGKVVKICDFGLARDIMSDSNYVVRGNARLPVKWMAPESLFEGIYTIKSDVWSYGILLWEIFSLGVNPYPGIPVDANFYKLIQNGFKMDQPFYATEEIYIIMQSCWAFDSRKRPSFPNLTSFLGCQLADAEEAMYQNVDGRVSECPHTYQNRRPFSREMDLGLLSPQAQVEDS

MAPK2(h) = biological target: T4, MAPK2(h) (Homo sapiens, UniProt P28482); type: biochemical
T4 construct: purchased Millipore KinaseProfiler

MELK(h) = biological target: T5, MELK(h) (Homo sapiens, UniProt Q14680); type: biochemical
T5 construct: purchased Millipore KinaseProfiler

PhKγ2(h) = biological target: T6, PhKγ2(h) (Homo sapiens, UniProt P15735); type: biochemical
T6 construct: purchased Millipore KinaseProfiler
T6 sequence (P15735 1-406): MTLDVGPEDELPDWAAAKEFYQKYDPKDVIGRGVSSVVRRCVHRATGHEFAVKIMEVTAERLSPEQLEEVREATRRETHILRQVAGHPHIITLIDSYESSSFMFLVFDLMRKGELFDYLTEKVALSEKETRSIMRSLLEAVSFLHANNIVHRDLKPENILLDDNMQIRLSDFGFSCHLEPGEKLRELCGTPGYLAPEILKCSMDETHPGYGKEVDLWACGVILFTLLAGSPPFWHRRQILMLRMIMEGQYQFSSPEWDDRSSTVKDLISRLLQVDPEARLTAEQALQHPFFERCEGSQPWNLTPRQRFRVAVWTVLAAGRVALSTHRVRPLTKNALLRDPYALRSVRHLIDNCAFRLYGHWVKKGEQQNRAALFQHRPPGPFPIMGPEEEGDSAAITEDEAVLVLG

Ron(h) = biological target: T7, Ron(h) (Homo sapiens, UniProt Q04912); type: biochemical
T7 construct: purchased Millipore KinaseProfiler

TSSK2(h) = biological target: T8, TSSK2(h) (Homo sapiens, UniProt Q96PF2); type: biochemical
T8 construct: purchased Millipore KinaseProfiler
T8 sequence (Q96PF2 1-358): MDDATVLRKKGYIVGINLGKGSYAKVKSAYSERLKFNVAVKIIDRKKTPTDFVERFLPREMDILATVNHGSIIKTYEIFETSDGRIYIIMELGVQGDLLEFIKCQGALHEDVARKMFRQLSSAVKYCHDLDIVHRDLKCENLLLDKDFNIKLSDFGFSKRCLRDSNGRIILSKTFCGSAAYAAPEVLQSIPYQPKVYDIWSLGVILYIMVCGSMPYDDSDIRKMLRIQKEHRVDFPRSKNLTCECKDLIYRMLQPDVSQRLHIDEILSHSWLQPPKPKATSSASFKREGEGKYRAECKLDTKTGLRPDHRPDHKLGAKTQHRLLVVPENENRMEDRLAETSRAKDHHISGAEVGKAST

ZAP-70(h) = biological target: T9, ZAP-70(h) (Homo sapiens, UniProt P43403); type: biochemical
T9 construct: purchased Millipore KinaseProfiler
T9 sequence (P43403 1-619): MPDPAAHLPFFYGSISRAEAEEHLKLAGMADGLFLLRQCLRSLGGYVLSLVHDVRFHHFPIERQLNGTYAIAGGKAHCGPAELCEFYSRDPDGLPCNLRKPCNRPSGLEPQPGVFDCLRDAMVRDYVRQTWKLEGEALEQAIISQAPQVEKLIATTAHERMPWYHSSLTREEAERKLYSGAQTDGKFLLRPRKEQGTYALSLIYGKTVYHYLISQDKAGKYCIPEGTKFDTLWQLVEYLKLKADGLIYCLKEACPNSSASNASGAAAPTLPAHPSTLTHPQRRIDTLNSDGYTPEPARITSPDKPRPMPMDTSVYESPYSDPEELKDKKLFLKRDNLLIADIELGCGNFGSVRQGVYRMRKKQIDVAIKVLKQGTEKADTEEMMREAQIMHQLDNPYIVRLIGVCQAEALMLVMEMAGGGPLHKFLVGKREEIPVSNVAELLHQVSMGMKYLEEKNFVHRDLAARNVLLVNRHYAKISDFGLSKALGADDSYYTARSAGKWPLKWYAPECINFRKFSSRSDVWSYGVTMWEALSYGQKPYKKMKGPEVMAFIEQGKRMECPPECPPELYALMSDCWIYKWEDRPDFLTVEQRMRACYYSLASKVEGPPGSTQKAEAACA

T5 sequence (Q14680 whole entry): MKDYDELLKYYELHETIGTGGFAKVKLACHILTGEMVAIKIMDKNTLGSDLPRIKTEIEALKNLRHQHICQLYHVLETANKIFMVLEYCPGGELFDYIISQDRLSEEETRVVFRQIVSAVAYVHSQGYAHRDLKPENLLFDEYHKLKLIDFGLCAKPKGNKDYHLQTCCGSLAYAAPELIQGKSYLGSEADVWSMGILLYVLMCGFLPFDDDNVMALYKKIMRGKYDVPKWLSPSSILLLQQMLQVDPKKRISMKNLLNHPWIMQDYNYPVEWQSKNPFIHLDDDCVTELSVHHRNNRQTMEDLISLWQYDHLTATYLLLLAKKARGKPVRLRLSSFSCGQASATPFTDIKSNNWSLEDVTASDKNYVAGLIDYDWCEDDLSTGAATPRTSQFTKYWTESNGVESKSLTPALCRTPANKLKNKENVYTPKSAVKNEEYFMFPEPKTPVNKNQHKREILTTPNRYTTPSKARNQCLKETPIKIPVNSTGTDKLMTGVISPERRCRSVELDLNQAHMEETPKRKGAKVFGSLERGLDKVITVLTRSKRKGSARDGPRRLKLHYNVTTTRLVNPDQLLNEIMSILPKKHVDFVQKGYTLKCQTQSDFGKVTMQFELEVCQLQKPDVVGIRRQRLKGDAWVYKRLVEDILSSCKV
T4 sequence (P28482 whole entry): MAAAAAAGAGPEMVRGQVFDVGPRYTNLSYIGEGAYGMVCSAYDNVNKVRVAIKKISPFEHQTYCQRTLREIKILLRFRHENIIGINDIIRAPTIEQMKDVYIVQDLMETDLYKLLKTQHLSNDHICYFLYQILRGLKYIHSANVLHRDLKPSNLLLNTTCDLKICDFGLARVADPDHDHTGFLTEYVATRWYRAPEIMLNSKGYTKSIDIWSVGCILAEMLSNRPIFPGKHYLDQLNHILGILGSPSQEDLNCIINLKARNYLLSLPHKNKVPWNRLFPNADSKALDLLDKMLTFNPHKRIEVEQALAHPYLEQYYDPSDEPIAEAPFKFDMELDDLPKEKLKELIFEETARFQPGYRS
T7 sequence (Q04912 25-1400): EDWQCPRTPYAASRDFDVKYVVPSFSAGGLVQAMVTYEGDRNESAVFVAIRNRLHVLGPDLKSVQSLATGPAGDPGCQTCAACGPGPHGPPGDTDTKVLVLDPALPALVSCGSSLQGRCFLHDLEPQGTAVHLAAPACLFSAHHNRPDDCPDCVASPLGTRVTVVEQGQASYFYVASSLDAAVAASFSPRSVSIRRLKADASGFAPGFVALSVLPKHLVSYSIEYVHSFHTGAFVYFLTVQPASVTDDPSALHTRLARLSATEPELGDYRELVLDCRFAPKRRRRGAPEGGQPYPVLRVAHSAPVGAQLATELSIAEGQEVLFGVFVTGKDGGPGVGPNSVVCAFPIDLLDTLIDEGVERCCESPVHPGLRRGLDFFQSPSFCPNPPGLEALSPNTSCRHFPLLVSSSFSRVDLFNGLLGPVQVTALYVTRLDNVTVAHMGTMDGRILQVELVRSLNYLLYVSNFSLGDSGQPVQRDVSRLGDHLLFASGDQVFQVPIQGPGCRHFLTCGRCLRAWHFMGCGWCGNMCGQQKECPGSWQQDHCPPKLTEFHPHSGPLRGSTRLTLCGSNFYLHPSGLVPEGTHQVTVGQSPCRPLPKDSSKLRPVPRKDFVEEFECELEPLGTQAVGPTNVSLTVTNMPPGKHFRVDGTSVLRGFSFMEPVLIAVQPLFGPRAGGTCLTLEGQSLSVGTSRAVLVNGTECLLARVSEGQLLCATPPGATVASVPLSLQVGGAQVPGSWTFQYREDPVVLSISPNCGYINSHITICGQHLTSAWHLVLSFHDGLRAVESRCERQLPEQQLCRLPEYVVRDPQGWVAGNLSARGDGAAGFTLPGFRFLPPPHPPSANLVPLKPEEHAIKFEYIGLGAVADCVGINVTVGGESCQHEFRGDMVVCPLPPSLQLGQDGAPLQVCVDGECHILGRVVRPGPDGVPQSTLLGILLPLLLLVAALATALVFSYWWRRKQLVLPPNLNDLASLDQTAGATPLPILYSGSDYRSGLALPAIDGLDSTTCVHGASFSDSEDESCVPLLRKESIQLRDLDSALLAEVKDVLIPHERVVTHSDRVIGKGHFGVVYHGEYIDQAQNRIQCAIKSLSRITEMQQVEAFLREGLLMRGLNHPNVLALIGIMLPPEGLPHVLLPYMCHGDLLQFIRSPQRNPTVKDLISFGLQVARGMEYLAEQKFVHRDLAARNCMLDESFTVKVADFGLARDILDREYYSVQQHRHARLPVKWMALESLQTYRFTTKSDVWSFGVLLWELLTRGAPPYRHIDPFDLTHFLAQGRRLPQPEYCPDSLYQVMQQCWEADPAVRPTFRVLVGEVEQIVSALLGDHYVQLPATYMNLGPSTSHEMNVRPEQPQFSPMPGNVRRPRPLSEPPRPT
T2 sequence (P10721 26-976 D816H): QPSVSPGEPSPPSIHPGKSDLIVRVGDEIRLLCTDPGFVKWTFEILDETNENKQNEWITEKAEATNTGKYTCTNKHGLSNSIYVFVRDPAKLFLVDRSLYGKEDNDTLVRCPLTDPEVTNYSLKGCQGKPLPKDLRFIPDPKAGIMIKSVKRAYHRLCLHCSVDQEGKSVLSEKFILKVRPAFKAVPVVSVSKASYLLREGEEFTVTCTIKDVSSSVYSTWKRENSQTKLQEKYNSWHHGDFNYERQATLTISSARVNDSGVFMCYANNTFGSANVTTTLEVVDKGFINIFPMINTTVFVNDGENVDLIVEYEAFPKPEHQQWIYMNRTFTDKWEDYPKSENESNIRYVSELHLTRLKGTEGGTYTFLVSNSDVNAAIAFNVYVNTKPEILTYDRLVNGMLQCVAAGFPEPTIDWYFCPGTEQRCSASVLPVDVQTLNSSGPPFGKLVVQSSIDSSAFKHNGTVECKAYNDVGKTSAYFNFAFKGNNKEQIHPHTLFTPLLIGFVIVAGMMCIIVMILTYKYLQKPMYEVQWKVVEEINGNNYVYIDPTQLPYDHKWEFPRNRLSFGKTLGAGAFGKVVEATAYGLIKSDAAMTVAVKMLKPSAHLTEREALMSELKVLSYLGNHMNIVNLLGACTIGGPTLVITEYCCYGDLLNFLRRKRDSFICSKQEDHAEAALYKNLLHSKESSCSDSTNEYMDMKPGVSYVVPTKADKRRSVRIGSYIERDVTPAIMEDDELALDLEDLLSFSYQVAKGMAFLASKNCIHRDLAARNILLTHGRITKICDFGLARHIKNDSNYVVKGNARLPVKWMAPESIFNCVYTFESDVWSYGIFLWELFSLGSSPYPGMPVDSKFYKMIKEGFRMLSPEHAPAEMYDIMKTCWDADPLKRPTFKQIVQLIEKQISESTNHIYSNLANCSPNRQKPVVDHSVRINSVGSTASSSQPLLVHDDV
T1 sequence (Q13882 whole entry): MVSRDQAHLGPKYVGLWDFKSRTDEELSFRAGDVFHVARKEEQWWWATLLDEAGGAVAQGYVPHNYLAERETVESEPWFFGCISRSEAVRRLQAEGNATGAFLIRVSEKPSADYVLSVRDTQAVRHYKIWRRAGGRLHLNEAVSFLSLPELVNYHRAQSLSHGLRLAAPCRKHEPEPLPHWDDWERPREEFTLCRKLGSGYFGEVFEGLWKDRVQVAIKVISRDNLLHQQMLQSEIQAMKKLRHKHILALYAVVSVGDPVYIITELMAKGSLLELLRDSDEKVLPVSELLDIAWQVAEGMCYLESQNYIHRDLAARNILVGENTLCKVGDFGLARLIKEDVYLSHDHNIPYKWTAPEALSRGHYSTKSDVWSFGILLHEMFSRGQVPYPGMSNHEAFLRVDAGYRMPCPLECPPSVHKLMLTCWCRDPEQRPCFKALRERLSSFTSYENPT

Cn1ncc(Cl)c1-c1cc(C(=O)N[C@H](CN)Cc2cccc(F)c2)sc1Cl [GSK2110183]
inhibition at 0.5 µM (BRK(h)): 0%
inhibition at 10 µM (BRK(h)): -2%
% Inhibition (CK1(y); 0.5 µM): 3%
% Inhibition (CK1(y); 10 µM): 54%
inhibition at 0.5 µM (cKit(D816H)(h)): -6%
inhibition at 10 µM (cKit(D816H)(h)): -3%
inhibition at 0.5 µM (Flt3(h)): -8%
inhibition at 10 µM (Flt3(h)): 24%
inhibition at 0.5 µM (MAPK2(h)): -2%
inhibition at 10 µM (MAPK2(h)): 17%
inhibition at 0.5 µM (MELK(h)): 79%
inhibition at 10 µM (MELK(h)): 97%
inhibition at 0.5 µM (PhKγ2(h)): 31%
inhibition at 10 µM (PhKγ2(h)): 89%
inhibition at 0.5 µM (Ron(h)): 12%
inhibition at 10 µM (Ron(h)): 30%
inhibition at 0.5 µM (TSSK2(h)): 4%
inhibition at 10 µM (TSSK2(h)): 44%
inhibition at 0.5 µM (ZAP-70(h)): 8%
inhibition at 10 µM (ZAP-70(h)): -2%

Cn1ncc(Cl)c1-c1cc(C(=O)N[C@H](CN)Cc2ccc(F)c(F)c2)oc1Cl [GSK2141795]
inhibition at 0.5 µM (BRK(h); 0.5 µM, read-out: % Inhibition): -15%
inhibition at 10 µM (BRK(h); 10 µM, read-out: % Inhibition): 25%
% Inhibition (CK1(y); 0.5 µM): 35%
% Inhibition (CK1(y); 10 µM): 93%
inhibition at 0.5 µM (cKit(D816H)(h); 0.5 µM, read-out: % Inhibition): -15%
inhibition at 10 µM (cKit(D816H)(h); 10 µM, read-out: % Inhibition): 43%
inhibition at 0.5 µM (Flt3(h); 0.5 µM, read-out: % Inhibition): -12%
inhibition at 10 µM (Flt3(h); 10 µM, read-out: % Inhibition): 22%
inhibition at 0.5 µM (MAPK2(h); 0.5 µM, read-out: % Inhibition): 11%
inhibition at 10 µM (MAPK2(h); 10 µM, read-out: % Inhibition): 49%
inhibition at 0.5 µM (MELK(h); 0.5 µM, read-out: % Inhibition): 80%
inhibition at 10 µM (MELK(h); 10 µM, read-out: % Inhibition): 97%
inhibition at 0.5 µM (PhKγ2(h); 0.5 µM, read-out: % Inhibition): 23%
inhibition at 10 µM (PhKγ2(h); 10 µM, read-out: % Inhibition): 88%
inhibition at 0.5 µM (Ron(h); 0.5 µM, read-out: % Inhibition): 5%
inhibition at 10 µM (Ron(h); 10 µM, read-out: % Inhibition): 73%
inhibition at 0.5 µM (TSSK2(h); 0.5 µM, read-out: % Inhibition): 7%
inhibition at 10 µM (TSSK2(h); 10 µM, read-out: % Inhibition): 53%
inhibition at 0.5 µM (ZAP-70(h); 0.5 µM, read-out: % Inhibition): -23%
inhibition at 10 µM (ZAP-70(h); 10 µM, read-out: % Inhibition): -24%
